The target in this experiment is T1, SMO (Mus musculus, UniProt P56726).
T1 construct: endogenous in cells; host or cells: C3H10T1/2 (ATCC #CCL-226)
Description: Smoothened (SMO)/Sonic Hedgehog (SHh) Transient Transcriptional Activation Assay (Gli-luciferase reporter in C3H10T1/2 cells). The format is cell-based, murine. The following applies: SHh 250 ng/ml, 20 hrs; for SMO % inhibition at 2 uM: 2 uM test compound. The essentials:
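Luminescence (Dual-Glo) measured after 20 h co-exposure at 37 °C to 250 ng/ml human SHh and compound at 2 uM down to 2 nM final. Cells were C3H10T1/2 carrying a transfected murine 10× Gli response-element luciferase construct with pEGFP, starved 20 h in 0.5% calf serum beforehand.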
For orientation: A reporter such as luciferase makes a cellular process visible.

[1] abbreviates: C3H 10T1/2, 2 μM test compound, read-out: SMO CELL % INHIBITION @ 2 μM.
[2] abbreviates: C3H 10T1/2, 2 uM test compound, read-out: SMO % inhibition at 2 uM.

Counter-ions that a name gives are not always drawn. Like-named read-outs stand apart in the source and are kept apart here.

T1 sequence (P56726 33-793): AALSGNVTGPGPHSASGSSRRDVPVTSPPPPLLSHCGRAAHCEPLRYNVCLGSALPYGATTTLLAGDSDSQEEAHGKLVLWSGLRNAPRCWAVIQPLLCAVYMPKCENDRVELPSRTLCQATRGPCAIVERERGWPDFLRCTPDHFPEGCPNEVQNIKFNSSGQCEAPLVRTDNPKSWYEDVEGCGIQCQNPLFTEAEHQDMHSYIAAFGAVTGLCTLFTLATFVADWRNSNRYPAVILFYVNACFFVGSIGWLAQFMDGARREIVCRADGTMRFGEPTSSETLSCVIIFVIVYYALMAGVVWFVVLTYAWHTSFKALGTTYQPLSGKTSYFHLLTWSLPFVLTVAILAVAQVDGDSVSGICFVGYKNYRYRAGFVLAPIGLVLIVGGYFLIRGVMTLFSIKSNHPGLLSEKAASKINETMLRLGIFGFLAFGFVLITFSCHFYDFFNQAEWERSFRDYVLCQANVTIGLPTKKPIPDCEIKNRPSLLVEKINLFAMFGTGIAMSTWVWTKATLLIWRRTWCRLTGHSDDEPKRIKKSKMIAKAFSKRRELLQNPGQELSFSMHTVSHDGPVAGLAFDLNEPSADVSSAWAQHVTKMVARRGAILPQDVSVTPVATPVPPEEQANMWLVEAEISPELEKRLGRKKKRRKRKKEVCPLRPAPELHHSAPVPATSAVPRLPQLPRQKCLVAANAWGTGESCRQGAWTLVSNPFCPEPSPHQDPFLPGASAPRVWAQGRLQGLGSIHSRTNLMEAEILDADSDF

Consider `Cc1c(C(=O)N[C@@H]2CCC[C@H](c3nc4ccccc4[nH]3)C2)oc2ccccc12` [Example 189, N-[(1R,3S)-3-(1H-benzimidazol-2-yl)cyclohexyl]-3-methyl-1-benzofuran-2-carboxamide triflouroacetate], for which the inhibition at 2 µM under setting [1] came out at 65%. `N#Cc1ccc(NC(=O)NC23CCCC(c4nc5cc(C(F)(F)F)ccc5[nH]4)(C2)C3)cc1` [Example 261, 1-(4-cyanophenyl)-3-{5-[5-(trifluoromethyl)-1H-benzimidazol-2-yl]bicyclo[3.1.1]hept-1-yl}urea]: the inhibition at 2 µM under setting [1] turned out to be 78.8%. `O=C(Cn1ccc2ccccc2c1=O)NC1CCCC(c2nc3ccccc3[nH]2)C1` (centres unmarked) [Example 154, N-[3-(1H-benzimidazol-2-yl)cyclohexyl]-2-(1-oxoisoquinolin-2(1H)-yl)acetamide triflouroacetate]: the inhibition at 2 µM under setting [1] is 57%. Turning to “N-(3-(6-((Dimethylamino)methyl]-1-methyl-1H-benzo[d]imidazol-2-yl)cyclohexyl)-2,3-dihydrobenzo[b][1,4]dioxine-6-carboxamide and N-(3-(5-((Dimethylamino)methyl]-1-methyl-1H-benzo[d]imidazol-2-yl)cyclohexyl)-2,3-dihydrobenzo[b][1,4]dioxine-6-carboxamide [Example 34]”, the “SMO % inhibition at 2 uM” value is on record as 96%. Consider `COc1ccc2[nH]c([C@@H]3CCC[C@H](NC(=O)c4ccc5c(c4)OCCO5)C3)nc2c1` [Example 239, N-((1S,3R)-3-(5-methoxy-1H-benzo[d]imidaz-ol-2-yl)cyclohexyl)-2,3-dihydrobenzo[b] [1,4]dioxine-6-carboxamide HCl], for which, under setting [1], the inhibition at 2 µM was determined as 23%. Regarding `N#Cc1ccc2nc(C3CCCC(NC(=O)c4ccc5c(c4)OCCO5)C3)[nH]c2c1` (centres unmarked) [Example 19, N-(3-(5-Cyano-1H-benzo[d]imidazol-2-yl)cyclohexyl]-2,3-dihydrobenzo[b][1,4]dioxine-6-carboxamide], the inhibition at 2 µM under setting [2] was determined as 100%. For the compound `O=C(N[C@@H]1CCC[C@H](c2nc3cc(C(F)(F)F)ccc3[nH]2)C1)c1ccc2c(c1)CCN(CC1CC1)C2` [Example 295], the inhibition at 2 µM under setting [1] stood at 105%. As for “N-(3-(6-(2-Cyanopropan-2-yl)-1-methyl-1H-benzo[d]imidazol-2-yl)cyclohexyl)-2,3-dihydrobenzo[b)[1,4]dioxine-6-carboxamide and N-(3-(5-(2-cyanopropan-2-yl)-1-methyl-1H-benzo[d]imidazol-2-yl)cyclohexyl)-2,3-dihydrobenzo[b][1,4]dioxine-6-carboxamide [Example 36]”, the “SMO % inhibition at 2 uM” value is reported as 93%. For the compound `O=C(NC1CCCC(c2nc3ccccc3[nH]2)C1)c1ccc2snnc2c1` (centres unmarked) [Example 161, N-[3-(1H-benzimidazol-2-yl)cyclohexyl]-1,2,3-benzothiadiazole-5-carboxamide triflouroacetate], the inhibition at 2 µM under setting [1] worked out at 54%. On the same count and under the same terms, for `O=C(N[C@@H]1CCC[C@H](c2nc3ccccc3[nH]2)C1)c1ccc2cc[nH]c2c1` [Example 203, N-[(1R,3S)-3-(1H-benzimidazol-2-yl)cyclohexyl]-1H-indole-6-carboxamide triflouroacetate] the value was 109%. Consider `CN1[C@H](C(=O)N[C@@H]2CCC[C@H](c3nc4ccccc4[nH]3)C2)C[C@@H]2CCCC[C@@H]21` [Example 268, (2S,3aS,7aS)-N-[(1R,3S)-3-(1H-benzimidazol-2-yl)cyclohexyl]-1-methyloctahy-dro-1H-indole-2-carboxamide HCl], for which, under setting [1], the inhibition at 2 µM turned out to be 50.7%.

As to `COCCNc1ccc(C(=O)N[C@@H]2CCC[C@H](c3nc4cc(C(F)(F)F)ccc4[nH]3)C2)cn1` [Example 292, 6-[(2-methoxyethyl)amino]-N-{(1R,3S)-3-[5-(trifluoromethyl)-1H-benzimidazol-2-yl]cyclohexyl} nicotinamide HCl], under setting [1], the inhibition at 2 µM was 104%.

On to `O=C(NC1CCCC(c2nc3ccccc3[nH]2)C1)c1ccc(-n2cnnn2)cc1` (centres unmarked) [Example 163, N-[3-(1H-benzimidazol-2-yl)cyclohexyl]-4-(1H-tetrazol-1-yl)benzamide triflouroacetate], for which the inhibition at 2 µM under setting [1] was 95%. On the same count and under the same terms, for `O=C(NC12CCCC(c3nc4cc(C(F)(F)F)ccc4[nH]3)(C1)C2)c1ccc2c(c1)CCCO2` [Example 276, N-{5-[5-(trifluoromethyl)-1H-benzimidazol-2-yl]bicyclo[3.1.1]hept-1-yl}chromane-6-carboxamide] the value was 84.7%; for `O=C1COc2ccc(C(=O)N[C@@H]3CCC[C@H](c4nc5cc(Cl)ccc5[nH]4)C3)cc2N1` [Example 299, N-[(1R,3S)-3-(5-chloro-1H-benzimidazol-2-yl)cyclohexyl]-3-oxo-3,4-dihydro-2H-1,4-benzoxazine-6-carboxamide (+)-tartrate], 105%. Consider `COc1cc(OC)cc(C(=O)NC2CCCC(c3nc4cc(C(=O)N(C)C)ccc4[nH]3)C2)c1` (single isomer, unassigned) [Example 8, 2-(3-(3,5-dimethoxybenzamido)cyclohexyl)-N,N-dimethyl-1H-benzo[d]imidazole-5-carboxamides (cis- and trans-isomers)], for which the “SMO % inhibition at 2 uM” value turned out to be 68%. With `O=C(N[C@@H]1CCC[C@H](c2nc3ccccc3n2CCO)C1)c1ccc2c(c1)OCCO2` (stereo in doubt) [Example 71, N-{3-[1-(2-hydroxyethyl)-1H-benzimidazol-2-yl]cyclohexyl}-2,3-dihydro-1,4-benzodioxine-6-carboxamide], the inhibition at 2 µM under setting [1] came out at 98%. Regarding `Cn1cc(CC(=O)NC2CCCC(c3nc4ccccc4[nH]3)C2)c2ccccc21` (centres unmarked) [Example 115, N-[3-(1H-benzimidazol-2-yl)cyclohexyl]-2-(1-methyl-1H-indol-3-yl)acetamide triflouroacetate], the inhibition at 2 µM under setting [1] turned out to be 106%. Consider `O=C(NC1CCCC(c2nc3ccccc3[nH]2)C1)c1c[nH]c(=O)[nH]c1=O` (centres unmarked) [Example 108, N-[3-(1H-benzimidazol-2-yl)cyclohexyl]-2,4-dioxo-1,2,3,4-tetrahydropyr-imidine-5-carboxamide triflouroacetate], for which, under setting [1], the inhibition at 2 µM is 116%. As to `Cc1ccc2[nH]c(C3CCCC(NC(=O)c4ccc5c(c4)OCCO5)C3)nc2c1` (centres unmarked) [Example 28, N-(3-(5-Methyl-1H-benzo[d]imidazol-2-yl)cyclohexyl]-2,3-dihydrobenzo[b][1,4]dioxine-6-carboxamide], the inhibition at 2 µM under setting [2] turned out to be 103%. Consider `Cc1[nH]c2ccc(C(=O)N[C@@H]3CCC[C@H](c4nc5ccccc5[nH]4)C3)cc2c1C` [Example 192, N-[(1R,3S)-3-(1H-benzimidazol-2-yl)cyclohexyl]-2,3-dimethyl-1H-indole-5-carboxamide triflouroacetate], for which the inhibition at 2 µM under setting [1] was determined as 109%. On the same count and under the same terms, for `COc1cccc2[nH]c(C(=O)N[C@@H]3CCC[C@H](c4nc5ccccc5[nH]4)C3)cc12` [Example 208, N-[(1R,3S)-3-(1H-benzimidazol-2-yl)cyclohexyl]-4-methoxy-1H-indole-2-carboxamide triflouroacetate] the value was 80%. On to `CN(C)c1ccc2nc(C3CCCC(NC(=O)c4ccc5c(c4)OCCO5)C3)[nH]c2c1` (centres unmarked) [Example 39], for which the inhibition at 2 µM under setting [2] turned out to be 102%.

As for `CN1c2ccccc2OCC1CC(=O)NC1CCCC(c2nc3ccccc3[nH]2)C1` (centres unmarked) [Example 94, N-[3-(1H-benzimidazol-2-yl)cyclohexyl]-2-(4-methyl-3,4-dihydro-2H-1,4-benzoxazin-3-yl)acetamide triflouroacetate], under setting [1], the inhibition at 2 µM worked out at 96%.

For the compound `CCCN1CCNC(=O)C1CC(=O)NC1CCCC(c2nc3ccccc3[nH]2)C1` (centres unmarked) [Example 110, N-[3-(1H-benzimidazol-2-yl)cyclohexyl]-2-(3-oxo-1-propylpiperazin-2-yl)acetamide triflouroacetate], the inhibition at 2 µM under setting [1] came to 86%. Still for that read-out and setting: for `[N-]=[N+]=Nc1c(F)c(F)c(C(=O)NC23CCCC(c4nc5cc(C(F)(F)F)ccc5[nH]4)(C2)C3)c(F)c1F` [Example 302, 4-azido-2,3,5,6-tetrafluoro-N-{5-[5-(trifluoromethyl)-1H-benzimidazol-2-yl]bicyclo[3.1.1]hept-1-yl}benzamide] the value was 97.1%.

For the compound `Cn1c([C@@H]2CCC[C@@H](NC(=O)c3ccc4c(c3)OCCO4)C2)nc2ccccc21` [Example 240, N-([1R,3R]-3-(1-methyl-1H-benzo[d]imidaz-ol-2-yl)cyclohexyl)-2,3-dihydrobenzo[b] [1,4]dioxine-6-carboxamide HCl], under setting [1], the inhibition at 2 µM stood at 60%. Still for that read-out and setting: next, `O=C(N[C@@H]1CCC[C@H](c2nc3ccccc3[nH]2)C1)C1COc2ccccc2C1` (stereo partly drawn) [Example 195, N-[(1R,3S)-3-(1H-benzimidazol-2-yl)cyclohexyl] chromane-3-carboxamide triflouroacetate]: 81%; `COc1cc(OC)cc(C(=O)N[C@@H]2CCC[C@H](c3nc4ccccc4[nH]3)C2)c1` [Example 166, N-[(1R,3S)-3-(1H-benzimidazol-2-yl)cyclohexyl]-3,5-dimethoxybenz-amide HCl]: 109%. On the same count and under the same terms, next, `O=C(N[C@@H]1CCC[C@H](c2nc3ccccc3[nH]2)C1)c1ccc2ccccc2c1` [Example 187, N-[(1R,3S)-3-(1H-benzimidazol-2-yl)cyclohexyl]-2-naphthamide triflouroacetate]: 94%.

As to `O=C1Cc2cc(C(=O)N[C@@H]3CCC[C@H](c4nc5cc(C(F)(F)F)ccc5[nH]4)C3)ccc2N1` [Example 286, 2-oxo-N-{(1R,3S)-3-[5-(trifluoromethyl)-1H-benzimidazol-2-yl]cyclohexyl} indoline-5-carboxamide HCl], the inhibition at 2 µM under setting [1] was 114%.

`O=C(N[C@@H]1CCC[C@H](c2nc3ccccc3[nH]2)C1)c1n[nH]c2ccccc12` [Example 199, N-[(1R,3S)-3-(1H-benzimidazol-2-yl)cyclohexyl]-1H-indazole-3-carboxamide triflouroacetate]: the inhibition at 2 µM under setting [1] was 67%.

For orientation: inhibition means the drop in the measured response relative to a control, in per cent.
